In patent publication US11773057B2, “Naphthalenesulfonamide compound, preparation method, and application” (CHINA PHARMACEUTICAL UNIVERSITY, priority 2019, dated 2023) one finds IC50 data, which are given here for 15 molecules.

The target of the first experiment is T1, Keap1-Nrf2 PPI (Keap1 kelch domain protein, FITC labeled Nrf2 9 peptide) (Homo sapiens, UniProt Q14145).
T1 construct: 10 μL 12 nm Keap1 kelch domain protein
T1 sequence (Q14145 321-609 limits assumed): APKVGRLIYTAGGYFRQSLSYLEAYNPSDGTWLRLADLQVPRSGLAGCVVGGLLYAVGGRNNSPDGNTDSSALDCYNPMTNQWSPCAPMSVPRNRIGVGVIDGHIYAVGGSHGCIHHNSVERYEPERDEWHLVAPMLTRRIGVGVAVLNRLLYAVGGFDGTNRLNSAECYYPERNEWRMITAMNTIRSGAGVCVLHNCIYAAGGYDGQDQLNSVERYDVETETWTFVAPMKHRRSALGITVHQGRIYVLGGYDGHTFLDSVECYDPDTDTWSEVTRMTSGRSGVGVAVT
Nature of the experiment: Fluorescence polarization based Keap1-Nrf2 PPI competitive inhibition experiment (FP experiment). The experiment is classed as binding. The settings on record: FP experiment; general formula I / II compounds. How it is done:
1. Keap1-Nrf2 PPI Competitive Inhibition Test Based on Fluorescence Polarization (FP Experiment)
The 384-well blackboard model 3676 produced by Corning is used in FP experiment, with a total volume of reaction of 40 μL. 20 μL compound, 10 μL 4 nm FITC labeled Nrf2 9 peptide, 10 μL 12 nm Keap1 kelch domain protein are added to the well in order. 20 μL 200 nM DDO-1002, 10 μL 4 nM of the FITC-labeled Nrf2 9 peptide, 10 μL 12 nM of Keap1 Ketch domain protein are used in the positive control; 20 μL HEPES buffer, 10 μL 4 nM of the FITC-labeled Nrf2 9 peptide, 10 μL, 12 nM of Keap1 Kelch domain protein are used in the negative control; 10 μL 4 nM of the FITC-labeled Nrf2 9 peptide, 30 μL of HEPES buffer are used in the blank control. After addition is complete, they are incubated for 30 min at room temperature. The detection instrument is a SpectraMax Multi-Mode Microplate Reader (Molecular Devices), the excitation light wavelength selected is 485 nm, the emission light wavelength is 545 nm, and the fluorescence intensity in the horizontal and vertical directions is detected to calculate the polarization value. The inhibition rate is calculated as: inhibition %=[…]/(Pmax−Pmin) wherein Pobs is the polarization value of the compound well, Pmax is the polarization value of the negative control well, and Pmin is the polarization value of the blank well. Data treatment is performed using GraphPad Prism, and IC50 of the compound is calculated using a concentration-inhibition rate curve. The IC50 values for each compound are as previously described.
Take `COc1ccc(S(=O)(=O)N(CC(=O)O)c2ccc(N(Cc3ccc(F)cc3)[C@@H](C)CC(=O)O)c3ccccc23)cc1` [DDO-1167, (S)-3-((4-((N-(carboxymethyl)-4-methoxyphenyl)sulfonamido)naphthalen-1-yl) (4-fluorobenzyl)amino) butanoic acid]: the IC50 (as a rule, the concentration at which inhibition is half-maximal) was 176 nM.
In turn, `COc1ccc(S(=O)(=O)N(CC(=O)O)c2ccc(N(Cc3ccccc3C)[C@@H](C)CC(=O)O)c3ccccc23)cc1` [DDO-1171] showed a concentration for half-maximal inhibition (IC50) of 113 nM.
With `COc1ccc(S(=O)(=O)Nc2ccc(N(Cc3cccc(F)c3)[C@@H](C)CC(=O)O)c3ccccc23)cc1` [DDO-1176, (S)-3-((3-fluorobenzyl) (4-((4-methoxyphenyl)sulfonamido)naphthalen-1-yl)amino) butanoic acid], the IC50 was 2470 nM.
Turning to `COc1ccc(S(=O)(=O)N(CC(=O)O)c2ccc(N(Cc3cccc(C)c3)[C@@H](C)CC(=O)O)c3ccccc23)cc1` [DDO-1169], the 50% inhibitory concentration (IC50) amounted to 205 nM.
Molecule `COc1ccc(S(=O)(=O)Nc2ccc(N(Cc3ccc(F)cc3)[C@@H](C)CC(=O)O)c3ccccc23)cc1` [DDO-1166, (S)-3-((4-fluorobenzyl) (4-((4-methoxyphenyl)sulfonamido)naphthalen-1-yl)amino) butanoic acid] came in with an IC50 of 2150 nM.
For `COc1ccc(S(=O)(=O)N(CC(=O)O)c2ccc(N(Cc3cccc(Cl)c3)[C@@H](C)CC(=O)O)c3ccccc23)cc1` [DDO-1173, (S)-3-((4-((N-(Carboxymethyl)-4-methoxyphenyl)sulfonamido)naphthalen-1-yl) (3-chlorobenzyl)amino) butanoic acid], the IC50 was 180 nM.
The same measure, in the same setting: in the case of `COc1ccc(S(=O)(=O)N(CC(=O)O)c2ccc(N(Cc3ccc(Cl)cc3)[C@@H](C)CC(=O)O)c3ccccc23)cc1` [DDO-1165, (S)-3-((4-((N-(carboxymethyl)-4-methoxyphenyl)sulfonamido)naphthalen-1-yl) (4-chlorobenzyl)amino) butanoic acid] it was 272 nM.
Regarding `COc1ccc(S(=O)(=O)Nc2ccc(N(Cc3ccccc3F)[C@@H](C)CC(=O)O)c3ccccc23)cc1` [DDO-1178, (S)-3-((2-fluorobenzyl) (4-((4-methoxyphenyl)sulfonamido)naphthalen-1-yl)amino) butanoic acid], the IC50 was 460 nM.
Consider `COc1ccc(S(=O)(=O)Nc2ccc(N(Cc3ccc(Cl)cc3)[C@@H](C)CC(=O)O)c3ccccc23)cc1` [DDO-1164, (S)-3-((4-chlorobenzyl) (4-((4-methoxyphenyl)sulfonamido)naphthalen-1-yl)amino) butanoic acid], for which the IC50 turned out to be 4100 nM.

Staying with this experiment, now noted: FP experiment; general formula III compounds; unit inferred.
`C#CCN(c1ccc(NS(=O)(=O)c2ccc(OC)cc2)c2ccccc12)[C@@H](C)CC(=O)O` [DDO-1180] displayed an IC50 of 95 nM.
`C#CCN(c1ccc(NS(=O)(=O)c2ccc(C(C)C)cc2)c2ccccc12)[C@@H](C)CC(=O)O` [DDO-1196, (S)-3-((4-((4-isopropylphenyl)sulfonamido)naphthalen-1-yl)(prop-2-yn-1-yl)amino) butanoic acid]: the IC50 came out at 220 nM.
The same measure, in the same setting: to `C#CCN(c1ccc(NS(=O)(=O)c2ccc(F)cc2)c2ccccc12)[C@@H](C)CC(=O)O` [DDO-1190, (S)-3-((4-((4-fluorophenyl)sulfonamido)naphthalen-1-yl)(prop-2-yn-1-yl)amino) butanoic acid] belongs 4000 nM.
The same measure, in the same setting: to `C#CCN(c1ccc(NS(=O)(=O)c2c(C)cc(C)cc2C)c2ccccc12)[C@@H](C)CC(=O)O` [DDO-1206, (S)-3-(prop-2-yn-1-yl(4-((2,4,6-trimethylphenyl)sulfonamido)naphthalen-1-yl)amino) butanoic acid] belongs 41 nM.

Staying with this experiment, now noted: FP experiment; general formula IV compounds.
In turn, `C#CCN(c1ccc(N(CC(=O)O)S(=O)(=O)c2ccccc2OC)c2ccccc12)[C@@H](C)CC(=O)O` [DDO-1199] returned an IC50 of 290 nM. That is a sub-micromolar value.

The same experiment, now with this note: FP experiment; general formula V / VI compounds.
As for `C#CCN(c1ccc(N(CC(=O)O)S(=O)(=O)c2ccc(OC)c(F)c2)c2ccccc12)[C@@H](C)CC(=O)O` [DDO-1213], the IC50 was 155 nM.
